Assay results: PubChem BioAssay (NCI)
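Briefly, cells in 96-well plates were exposed to five compound concentrations for 48 h, and endpoints were estimated by linear interpolation. GI50: concentration for 50% inhibition of growth. At the TGI there is no net growth.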

What was measured:
Test in all cases: inhibition of tumour cell growth, NCI panel, 48 h
[1] = system: SF-295 CNS
[2] = system: A498 renal
[3] = system: SW-620 colon
[4] = system: ACHN renal
[5] = system: NCI/ADR-RES ovarian
[6] = system: SK-MEL-2 melanoma
[7] = system: MDA-MB-231 breast
[8] = system: HOP-62 NSCLC
[9] = system: SN12C renal
[10] = system: HCC-2998 colon
[11] = system: SK-OV-3 ovarian
[12] = system: T-47D breast
[13] = system: SF-268 CNS
[14] = system: MCF7 breast
[15] = system: NCI-H226 lung
[16] = system: HS 578T breast
[17] = system: CAKI-1 renal
[18] = system: TK-10 renal
[19] = system: COLO 205 colon
[20] = system: NCI-H23 lung
[21] = system: 786-0 renal
[22] = system: CCRF-CEM leukemia
[23] = system: NCI-H460 lung
[24] = system: MDA-MB-435
[25] = system: UACC-62 melanoma
[26] = system: SK-MEL-28 melanoma
[27] = system: KM12 colon
[28] = system: BT-549 breast
[29] = system: A549 NSCLC
[30] = system: NCI-H522 lung
[31] = system: RXF 393 renal
[32] = system: SNB-19 CNS
[33] = system: UACC-257 melanoma
[34] = system: IGROV1 ovarian
[35] = system: M14 melanoma
[36] = system: U251 CNS
[37] = system: OVCAR-5 ovarian
[38] = system: SK-MEL-5 melanoma
[39] = system: HCT-116 colon
[40] = system: PC-3 prostate
[41] = system: HT29 colon
[42] = system: SF-539 CNS
[43] = system: OVCAR-3 ovarian
[44] = system: MALME-3M melanoma
[45] = system: SR leukemia
[46] = system: OVCAR-4 ovarian
[47] = system: K-562 leukemia
[48] = system: LOX IMVI melanoma
[49] = system: RPMI-8226 leukemia
[50] = system: HCT-15 colon
[51] = system: DU-145 prostate
[52] = system: UO-31 renal
[53] = system: MOLT-4 leukemia
[54] = system: OVCAR-8 ovarian
[55] = system: SNB-75 CNS
[56] = system: HL-60(TB) leukemia

COc1cc(C(=O)NN=C2c3ccccc3-c3ccccc32)cc(OC)c1OC
GI50 [1]: 1.99 µM | TGI [1]: 7.13 µM | GI50 [2]: 2.95 µM | TGI [2]: 13.9 µM | GI50 [3]: 2.53 µM | TGI [3]: > 100 µM | GI50 [4]: 4.21 µM | TGI [4]: 24.2 µM | GI50 [5]: 2.06 µM | TGI [5]: 11.7 µM | GI50 [6]: 2.84 µM | TGI [6]: 12.7 µM | GI50 [7]: 2.93 µM | TGI [7]: 20 µM | GI50 [8]: 5.15 µM | TGI [8]: 35.9 µM | GI50 [9]: 4.48 µM | TGI [9]: 41.2 µM | GI50 [10]: 10.5 µM | TGI [10]: 57.8 µM | GI50 [11]: 4.12 µM | TGI [11]: > 100 µM | GI50 [12]: 3.9 µM | TGI [12]: 65.5 µM | GI50 [13]: 4.57 µM | TGI [13]: 27.7 µM | GI50 [14]: 2.28 µM | TGI [14]: > 100 µM | GI50 [15]: 14.8 µM | TGI [15]: 73.9 µM | GI50 [16]: 3.5 µM | TGI [16]: 26.3 µM | GI50 [17]: 2.14 µM | TGI [17]: 7.92 µM | GI50 [18]: 7.86 µM | TGI [18]: 32.6 µM | GI50 [19]: 3.49 µM | TGI [19]: 32.1 µM | GI50 [20]: 3.94 µM | TGI [20]: 41.4 µM | GI50 [21]: 6.86 µM | TGI [21]: 31.3 µM | GI50 [22]: 3.53 µM | TGI [22]: > 100 µM | GI50 [23]: 3.17 µM | TGI [23]: 26.6 µM | GI50 [24]: 0.3 µM | TGI [24]: 1.46 µM | GI50 [25]: 3.09 µM | TGI [25]: 24.8 µM | GI50 [26]: 6.26 µM | TGI [26]: > 100 µM | GI50 [27]: 2.15 µM | TGI [27]: > 100 µM | GI50 [28]: 3.78 µM | TGI [28]: 28.9 µM | GI50 [29]: 3.26 µM | TGI [29]: > 100 µM | GI50 [30]: 1.77 µM | TGI [30]: 5.8 µM | GI50 [31]: 2.76 µM | TGI [31]: 29.3 µM | GI50 [32]: 6.56 µM | TGI [32]: 43.5 µM | GI50 [33]: 3.33 µM | TGI [33]: 34.2 µM | GI50 [34]: 3.47 µM | TGI [34]: 32.9 µM | GI50 [35]: 2.58 µM | TGI [35]: 92.4 µM | GI50 [36]: 3.3 µM | TGI [36]: 20.3 µM | GI50 [37]: 7.95 µM | TGI [37]: > 100 µM | GI50 [38]: 2.65 µM | TGI [38]: 18 µM | GI50 [39]: 2.71 µM | TGI [39]: > 100 µM | GI50 [40]: 2.72 µM | TGI [40]: 25 µM | GI50 [41]: 2.32 µM | TGI [41]: 56.6 µM | GI50 [42]: 2.1 µM | TGI [42]: 5.32 µM | GI50 [43]: 2.33 µM | TGI [43]: 10.6 µM | GI50 [44]: 2.45 µM | TGI [44]: 16.7 µM | GI50 [45]: 0.339 µM | TGI [45]: 10.6 µM | GI50 [46]: 17.5 µM | TGI [46]: > 100 µM | GI50 [47]: 0.829 µM | TGI [47]: 26.2 µM | GI50 [48]: 2.78 µM | TGI [48]: 49.4 µM | GI50 [49]: 3.5 µM | TGI [49]: > 100 µM | GI50 [50]: 2.63 µM | TGI [50]: > 100 µM | GI50 [51]: 5.34 µM | TGI [51]: 32.8 µM | GI50 [52]: 4.02 µM | TGI [52]: 75.3 µM | GI50 [53]: 5.12 µM | TGI [53]: > 100 µM | GI50 [54]: 4.93 µM | TGI [54]: 39 µM | GI50 [55]: 2.86 µM | TGI [55]: 21 µM | GI50 [56]: 2.21 µM | TGI [56]: 7.12 µM
